From US20220340566A1, “BENZYL AMINE-CONTAINING 5,6-HETEROAROMATIC COMPOUNDS USEFUL AGAINST MYCOBACTERIAL INFECTION” (priority 2019, published 2022) come the findings set out here.

SMILES strings stand for the structures.

Data set [1] deals with Mycobacterium avium ATCC700898. Description: Determination of IC85 against M. avium (resazurin fluorescence). The following applies: Mycobacterium avium, ATCC700898, M. avium ATCC700898, CAMHB medium, 37° C., 3 days incubation then resazurin, fluorescence one day later; read-out: IC85. Format: cell-based. Background: The colour change of resazurin is a common sign of viable cells or microbes.

Data set [2] is described as follows: Metabolic stability test in pooled human liver microsomes. Format: in vitro ADME. The following applies: human liver microsomes 0.5 mg protein/mL, 1 mmol/L NADPH, 37° C., 30 minutes. The procedure:
Using a commercially available pooled human liver microsomes, a compound of the present invention was reacted for a constant time, a remaining rate was calculated by comparing a reacted sample and an unreacted sample, thereby, a degree of metabolism in liver was assessed.
A reaction was performed (oxidative reaction) at 37° C. for 0 minute or 30 minutes in the presence of 1 mmol/L NADPH in 0.2 mL of a buffer (50 mmol/L Tris-HCl pH 7.4, 150 mmol/L potassium chloride, 10 mmol/L magnesium chloride) containing 0.5 mg protein/mL of human liver microsomes. After the reaction, 50 μL of the reaction solution was added to 100 μL of a methanol/acetonitrile=1/1 (v/v), mixed and centrifuged at 3000 rpm for 15 minutes. The compound of the present invention in the supernatant was quantified by LC/MS/MS or solid phase extraction (SPE)/MS, and a remaining amount of the compound of the present invention after the reaction was calculated, letting a compound amount at 0 minute reaction time to be 100%.
(Liver microsomes are a subcellular fraction often used to study metabolism.)

As for `Cc1ccc2nc(Cl)c(C(=O)NCc3ccc(N4CCN(c5ccc(OC(F)(F)F)cc5)[C@@H](C)C4)c(F)c3)n2c1.Cl` [Compound I-1-57], the IC85 in data set [1] was found to be 3.6 nM. The “MS_h_% (remaining amount of compound after reaction, 0 minute = 100%)” value in data set [2] is on record as 84%.

For `Cc1ccn2c(C(=O)NCc3ccc(N4CCC(c5ccc(OC(F)(F)F)cc5)[C@@H](C)C4)c(F)c3)c(Cl)nc2c1.Cl` (stereo partly drawn) [Compound I-1-58], the IC85 in data set [1] is 77 nM. In data set [2], the “MS_h_% (remaining amount of compound after reaction, 0 minute = 100%)” value amounted to 89%.

With `C[C@H]1CN(c2ccc(CNC(=O)c3c(Cl)nc4ccccn34)cc2F)CCN1c1ccc(OC(F)(F)F)cc1.Cl` [Compound I-1-59], the IC85 in data set [1] was 11 nM. Further, in data set [2], the “MS_h_% (remaining amount of compound after reaction, 0 minute = 100%)” value turned out to be 87%.

For `Cc1nc2cc(Cl)ccn2c1C(=O)NCc1ccc(N2CC=C(c3ccc(OC(F)(F)F)cc3)CC2)c(F)c1.Cl` [Compound I-1-60], the IC85 in data set [1] is 11 nM. Also, the “MS_h_% (remaining amount of compound after reaction, 0 minute = 100%)” value in data set [2] came out at 72%.

As to `Cc1ccn2c(C(=O)NCc3ccc(N4CC=C(c5ccc(OC(F)(F)F)cc5)CC4)c(F)c3)c(C)nc2c1.Cl` [Compound I-1-61], in data set [1], the IC85 is 200 nM. The “MS_h_% (remaining amount of compound after reaction, 0 minute = 100%)” value in data set [2] turned out to be 95%.

With `CCc1nc2ccc(Cl)cn2c1C(=O)NCc1ccc(N2CCC(c3ccc(OC(F)(F)F)cc3)CC2)c(F)c1.Cl` [Compound I-1-62], the IC85 in data set [1] stood at 7.2 nM. Besides, the “MS_h_% (remaining amount of compound after reaction, 0 minute = 100%)” value in data set [2] was 82%.

As to `Cc1nc2ccc(Cl)cn2c1C(=O)NCc1ccc(N2CCC(c3ccc(OC(F)(F)F)cc3)CC2)c(F)c1.Cl` [Compound I-1-63], in data set [1], the IC85 is 12 nM. In data set [2], the “MS_h_% (remaining amount of compound after reaction, 0 minute = 100%)” value was 95%.

On to `Cc1nc2ccc(F)cn2c1C(=O)NCc1ccc(N2CCC(c3ccc(OC(F)(F)F)cc3)CC2)c(F)c1.Cl` [Compound I-1-64], for which the IC85 in data set [1] is 79 nM. Also, the “MS_h_% (remaining amount of compound after reaction, 0 minute = 100%)” value in data set [2] is recorded as 94%.

Turning to `Cc1ccn2c(C(=O)NCc3ccc(N4CCC(c5ccc(OC(F)(F)F)cc5)CC4)c(F)c3)c(C)nc2c1.Cl` [Compound I-1-65], the IC85 in data set [1] came to 120 nM. For the same compound, the “MS_h_% (remaining amount of compound after reaction, 0 minute = 100%)” value in data set [2] was determined as 96%.

Take `CCc1nc2ccc(Cl)cn2c1C(=O)NCc1cc(F)c(N2CCC(c3ccc(OC(F)(F)F)cc3)CC2)c(F)c1.Cl` [Compound I-1-66]: in data set [1], the IC85 worked out at 11 nM. Besides, in data set [2], the “MS_h_% (remaining amount of compound after reaction, 0 minute = 100%)” value came out at 83%.

For the compound `Cc1ccn2c(C(=O)NCc3cc(F)c(N4CCC(c5ccc(OC(F)(F)F)cc5)CC4)c(F)c3)c(C)nc2c1.Cl` [Compound I-1-67], the IC85 in data set [1] came out at 68 nM. The “MS_h_% (remaining amount of compound after reaction, 0 minute = 100%)” value in data set [2] is 93%.

Consider `CCc1nc2cc(F)ccn2c1C(=O)NCc1ccc(N2CCC(c3ccc(OC(F)(F)F)cc3)CC2)c(F)c1.Cl` [Compound I-1-68], for which the IC85 in data set [1] was 13 nM. In data set [2], the “MS_h_% (remaining amount of compound after reaction, 0 minute = 100%)” value is listed as 91%.

With `Cc1nc2cc(Cl)ccn2c1C(=O)NCc1ccc(N2CCC(c3ccc(OC(F)(F)F)cc3)CC2)c(F)c1.Cl` [Compound I-1-69], in data set [1], the IC85 worked out at 510 nM. The “MS_h_% (remaining amount of compound after reaction, 0 minute = 100%)” value in data set [2] came out at 89%.

`Cc1ccn2nc(C)c(C(=O)NCc3ccc(N4CCN(c5ccc(OC(F)(F)F)cc5)[C@@H](C)C4)c(F)c3)c2c1.Cl` [Compound I-1-70]: in data set [1], the IC85 was 25 nM. Also, the “MS_h_% (remaining amount of compound after reaction, 0 minute = 100%)” value in data set [2] is reported as 84%.

Regarding `Cc1ccn2nc(C)c(C(=O)NCc3ccc(N4CCN(c5ccc(OC(F)(F)F)cc5)[C@H](C)C4)c(F)c3)c2c1.Cl` [Compound I-1-71], the IC85 in data set [1] was 100 nM. Moreover, the “MS_h_% (remaining amount of compound after reaction, 0 minute = 100%)” value in data set [2] worked out at 78%.

As to `Cc1ccn2nc(C)c(C(=O)NCc3ccc(C4CCN(c5ccc(OC(F)(F)F)cc5)CC4)c(F)c3)c2c1.Cl` [Compound I-1-72], the IC85 in data set [1] stood at 66 nM. For the same compound, the “MS_h_% (remaining amount of compound after reaction, 0 minute = 100%)” value in data set [2] is recorded as 87%.

With `CCOc1ccc(N2CCC(c3ccc(CNC(=O)c4c(CC)nc5ccc(Cl)cn45)cc3F)CC2)cc1.Cl` [Compound I-1-73], the IC85 in data set [1] stood at 19 nM. Further, the “MS_h_% (remaining amount of compound after reaction, 0 minute = 100%)” value in data set [2] stood at 90%.

Regarding `CCc1nc2ccc(Cl)cn2c1C(=O)NCc1ccc(C2CCN(c3ccc(OC4CC4)cc3)CC2)c(F)c1.Cl` [Compound I-1-74], the IC85 in data set [1] was 39 nM. In data set [2], the “MS_h_% (remaining amount of compound after reaction, 0 minute = 100%)” value was 64%.

As for `CCc1nc2ccc(Cl)cn2c1C(=O)NCc1ccc(C2CCN(c3ccc(OCC4CC4)cc3)CC2)c(F)c1.Cl` [Compound I-1-75], the IC85 in data set [1] turned out to be 16 nM. In data set [2], the “MS_h_% (remaining amount of compound after reaction, 0 minute = 100%)” value is given as 71%.

In the case of `CCc1nc2ccc(Cl)cn2c1C(=O)NCc1ccc(C2CCN(c3ccc(OCC4CC4)nc3)CC2)c(F)c1.Cl` [Compound I-1-76], the IC85 in data set [1] came out at 46 nM. Moreover, in data set [2], the “MS_h_% (remaining amount of compound after reaction, 0 minute = 100%)” value was 80%.

On to `CCc1nc2ccc(Cl)cn2c1C(=O)NCc1ccc(C2CCN(c3ccc(OCC4CC4)cn3)CC2)c(F)c1.Cl` [Compound I-1-77], for which the IC85 in data set [1] turned out to be 22 nM. Besides, in data set [2], the “MS_h_% (remaining amount of compound after reaction, 0 minute = 100%)” value came to 59%.

In the case of `CCCCOc1ccc(N2CCC(c3ccc(CNC(=O)c4c(CC)nc5ccc(Cl)cn45)cc3F)CC2)cc1.Cl` [Compound I-1-78], the IC85 in data set [1] came to 37 nM. The “MS_h_% (remaining amount of compound after reaction, 0 minute = 100%)” value in data set [2] is on record as 69%.

As for `CCc1nc2ccc(Cl)cn2c1C(=O)NCc1ccc(C2CCN(c3ccc(OCC(C)C)cn3)CC2)c(F)c1.Cl` [Compound I-1-79], in data set [1], the IC85 amounted to 36 nM. In addition, the “MS_h_% (remaining amount of compound after reaction, 0 minute = 100%)” value in data set [2] was found to be 65%.

With `CCc1nc2ccc(Cl)cn2c1C(=O)NCc1ccc(N2CCC(c3ccc(OC(F)(F)F)cc3)CC2)c(Cl)c1.Cl` [Compound I-1-80], in data set [1], the IC85 was 60 nM. Besides, the “MS_h_% (remaining amount of compound after reaction, 0 minute = 100%)” value in data set [2] is 74%.

As to `Cc1ccn2c(C(=O)NCc3ccc(N4CCC(c5ccc(OC(F)(F)F)cc5)CC4)cc3F)c(C)nc2c1.Cl` [Compound I-1-81], the IC85 in data set [1] was 330 nM. Also, the “MS_h_% (remaining amount of compound after reaction, 0 minute = 100%)” value in data set [2] is recorded as 94%.

Turning to `Cc1ccn2c(C(=O)NCc3ccc(N4CCC(c5ccc(OC(F)(F)F)cc5)CC4)c(Cl)c3)c(C)nc2c1.Cl` [Compound I-1-82], the IC85 in data set [1] stood at 500 nM. The “MS_h_% (remaining amount of compound after reaction, 0 minute = 100%)” value in data set [2] was determined as 98%.

For the compound `CCc1nc2cc(Cl)ccn2c1C(=O)NCc1ccc(N2CCN(c3ccc(OC(F)(F)F)cc3)[C@H](C)C2)c(F)c1.Cl` [Compound I-1-83], the IC85 in data set [1] came to 620 nM. Besides, in data set [2], the “MS_h_% (remaining amount of compound after reaction, 0 minute = 100%)” value amounted to 85%.

Regarding `Cc1nc2ccc(F)cn2c1C(=O)NCc1ccc(N2CCN(c3ccc(OC(F)(F)F)cc3)[C@H](C)C2)c(F)c1.Cl` [Compound I-1-84], the IC85 in data set [1] is 38 nM. For the same compound, in data set [2], the “MS_h_% (remaining amount of compound after reaction, 0 minute = 100%)” value came out at 86%.

As for `Cc1nc2ccc(Cl)cn2c1C(=O)NCc1ccc(N2CCN(c3ccc(OC(F)(F)F)cc3)[C@H](C)C2)c(F)c1.Cl` [Compound I-1-85], in data set [1], the IC85 came to 6.9 nM. For the same compound, the “MS_h_% (remaining amount of compound after reaction, 0 minute = 100%)” value in data set [2] is reported as 91%.

Consider `CCc1nc2ccc(Cl)cn2c1C(=O)NCc1ccc([C@@H]2CO[C@@H](c3ccc(OC(F)(F)F)cc3)CO2)c(F)c1` [Compound I-1-86], for which the IC85 in data set [1] was determined as 28 nM. Moreover, in data set [2], the “MS_h_% (remaining amount of compound after reaction, 0 minute = 100%)” value turned out to be 77%.
